Experiment in all cases: MIC of compounds alone, broth microdilution (CLSI)
Holding throughout (assay type): cell-based

The subject of one assay is E. cloacae ECL P99. The conditions noted are these: Enterobacter cloacae, ECLP99, substance alone, AmpC. Here is the method: (§1) Compounds of the present invention were assessed against genotyped bacterial strains alone or in combination with the β-lactam ceftazidime.
Another assay concerns P. aeruginosa PAE UFR92. Conditions: Pseudomonas aeruginosa, PAEUFR92, read-out: MIC alone PAE UFR92. How it is done: as §1
The subject of the next assay is P. aeruginosa PAE 107051. Conditions: Pseudomonas aeruginosa, PAE107051, substance alone, TEM-24, OXA-1. How it is done: as §1
A further assay relates to E. coli ECO UFR39. Conditions: Escherichia coli, ECOUFR39, substance alone, CTX-M-15, NDM-1. Here is the method: as §1
Assay [1] relates to P. aeruginosa PAE 105250 (AH). The conditions noted are these: Pseudomonas aeruginosa, substance alone, OXA-15. How it is done: as §1
Another assay concerns P. aeruginosa PAE UFR49. Conditions: Pseudomonas aeruginosa, PAEUFR49, substance alone, VIM-2. Here is the method:
as §1

For the next assay, the system named is K. pneumoniae KPN 121206. The conditions noted are these: Klebsiella pneumoniae, KPN121206, substance alone, SHV-1, NDM-1. How it is done: as §1
The subject of a further assay is E. coli ECO 190317. Conditions: Escherichia coli, ECO190317, substance alone, TEM-1, SHV-12, CTX-M-15, OXA-1. How it is done: as §1

The structures appear in SMILES notation. Structures can show the parent of a compound that is named as a salt.

Turning to `CN(C)C(=O)[C@H]1c2nc(C(=O)NCCNC(=N)N)sc2[C@@H]2CN1C(=O)N2OS(=O)(=O)O` (relative stereo) [Example 9, [trans-4-(dimethylcarbamoyl)-2-(2-guanidinoethylcarbamoyl)-5,8-methano-6-oxo-4,8-dihydrothiazolo[4,5-e][1,3]diazepin-7-yl] hydrogen sulfate], the MIC in the assay on E. cloacae ECL P99 is greater than 32 µg/mL; in the assay on P. aeruginosa PAE UFR92, 32 µg/mL; with P. aeruginosa PAE 107051 it was 8 µg/mL; in the assay on E. coli ECO UFR39 it was greater than 32 µg/mL; in assay [1] it was 8 µg/mL; in the assay with P. aeruginosa PAE UFR49, 4 µg/mL. Besides, the MIC was greater than 32 µg/mL in the assay on K. pneumoniae KPN 121206 and 32 µg/mL in the assay on E. coli ECO 190317.
`CN(C)C(=O)[C@@H]1c2c(CNC(=N)N)csc2[C@H]2CN1C(=O)N2OS(=O)(=O)O.O=C(O)C(F)(F)F` (relative stereo) [Example 10, [N-[[trans-4-(dimethylcarbamoyl)-5,8-methano-6-oxo-7-sulfooxy-4,8-dihydrothieno[2,3-e][1,3]diazepin-3-yl]methyl]carbamimidoyl]ammonium 2,2,2-trifluoroacetate]: the MIC in the assay on E. cloacae ECL P99 was 16 µg/mL; in the assay with P. aeruginosa PAE UFR92, 8 µg/mL; in the assay on P. aeruginosa PAE 107051, 4 µg/mL; with E. coli ECO UFR39, 32 µg/mL; in assay [1] it was 8 µg/mL; in the assay with P. aeruginosa PAE UFR49, 8 µg/mL. Also, the MIC came to 32 µg/mL in the assay on K. pneumoniae KPN 121206 and 2 µg/mL in the assay with E. coli ECO 190317.
Turning to `CN(C)C(=O)[C@@H]1c2c(CCNC(=N)N)csc2C2CN1C(=O)N2OS(=O)(=O)O` (stereo in doubt) [Example 11, [(trans-4-(dimethylcarbamoyl)-3-(2-quanidinoethyl)-5,8-methano-6-oxo-4,8-dihydrothieno[2,3-e][1,3]diazepin-7-yl] hydrogen sulfate], the MIC in the assay with E. cloacae ECL P99 was 16 µg/mL; with P. aeruginosa PAE UFR92, 8 µg/mL; in the assay with P. aeruginosa PAE 107051, 4 µg/mL; in the assay on E. coli ECO UFR39, greater than 32 µg/mL; in assay [1] it was 4 µg/mL; in the assay on P. aeruginosa PAE UFR49, 4 µg/mL. Besides, the MIC was greater than 32 µg/mL in the assay with K. pneumoniae KPN 121206 and 4 µg/mL in the assay with E. coli ECO 190317.
With `CC(C)(O/N=C(\C(=O)N[C@@H]1C(=O)N2C(C(=O)[O-])=C(C[n+]3ccccc3)CS[C@H]12)c1csc(N)n1)C(=O)O` [CAZ, ceftazidime], the MIC with E. cloacae ECL P99 is 128 µg/mL; with P. aeruginosa PAE UFR92, 32 µg/mL; in the assay on P. aeruginosa PAE 107051, 256 µg/mL; in the assay on E. coli ECO UFR39 it was greater than 256 µg/mL; in assay [1] it was 256 µg/mL; in the assay with P. aeruginosa PAE UFR49, 64 µg/mL. Also, the MIC was greater than 256 µg/mL with K. pneumoniae KPN 121206 and 128 µg/mL with E. coli ECO 190317.
On to `NCCNC(=O)c1nc2c(s1)C1CN(C2)C(=O)N1S(=O)(=O)O` (stereo not drawn) [Example 1, [2-(2-aminoethylcarbamoyl)-5,8-methano-6-oxo-4,8-dihydrothiazolo[4,5-e][1,3]diazepin-7-yl]sulfonic acid], for which the MIC is 2 µg/mL with E. cloacae ECL P99; 8 µg/mL with P. aeruginosa PAE UFR92; 8 µg/mL in the assay on P. aeruginosa PAE 107051; 0.5 µg/mL with E. coli ECO UFR39; 8 µg/mL in assay [1]; 16 µg/mL in the assay on P. aeruginosa PAE UFR49. The results for the MIC in the assay on K. pneumoniae KPN 121206 and in the assay on E. coli ECO 190317 were 32 µg/mL and 0.25 µg/mL, respectively.
In the case of `N=C(N)NCc1nc2c(s1)C1CN(C2)C(=O)N1OS(=O)(=O)O` (stereo not drawn) [Example 2], the MIC in the assay on E. cloacae ECL P99 is 1 µg/mL; in the assay on P. aeruginosa PAE UFR92, 4 µg/mL; in the assay on P. aeruginosa PAE 107051, 2 µg/mL; with E. coli ECO UFR39, 0.125 µg/mL; in assay [1] it was 4 µg/mL; in the assay with P. aeruginosa PAE UFR49 it was 4 µg/mL. Besides, the MIC with K. pneumoniae KPN 121206 was greater than 32 µg/mL; in the assay on E. coli ECO 190317 it was 0.063 µg/mL.
Consider `N=C(N)NCCNC(=O)c1nc2c(s1)C1CN(C2)C(=O)N1OS(=O)(=O)O` (stereo not drawn) [Example 3, [2-(2-quanidinoethylcarbamoyl)-5,8-methano-6-oxo-4,8-dihydrothiazolo[4,5-e][1,3]diazepin-7-yl]sulfonic acid], for which the minimal inhibitory concentration (MIC) in the assay with E. cloacae ECL P99 was found to be 0.5 µg/mL; in the assay with P. aeruginosa PAE UFR92, 8 µg/mL; in the assay on P. aeruginosa PAE 107051 it was 4 µg/mL; with E. coli ECO UFR39, 2 µg/mL; in assay [1], 8 µg/mL; in the assay on P. aeruginosa PAE UFR49, 16 µg/mL. For the same compound, the values for the MIC in the assay with K. pneumoniae KPN 121206 and with E. coli ECO 190317 were 16 µg/mL and 0.5 µg/mL, respectively.
In the case of `NCc1nc2c(s1)C1CN(C2)C(=O)N1OS(=O)(=O)O` (stereo not drawn) [Example 4], the MIC is 1 µg/mL in the assay with E. cloacae ECL P99; 32 µg/mL in the assay on P. aeruginosa PAE UFR92; greater than 32 µg/mL in the assay on P. aeruginosa PAE 107051; 0.25 µg/mL with E. coli ECO UFR39; 32 µg/mL in assay [1]; 32 µg/mL in the assay on P. aeruginosa PAE UFR49. Also, the MIC in the assay with K. pneumoniae KPN 121206 was found to be 32 µg/mL; in the assay on E. coli ECO 190317, 0.25 µg/mL.
For `O=C(Nc1nc2c(s1)C1CN(C2)C(=O)N1OS(=O)(=O)[O-])OCc1ccccc1.[Na+]` (stereo not drawn) [Example 5], the MIC (in the assay on E. cloacae ECL P99; with P. aeruginosa PAE UFR92; in the assay with P. aeruginosa PAE 107051; in the assay on E. coli ECO UFR39; in assay [1]; in the assay on P. aeruginosa PAE UFR49) was greater than 32 µg/mL in each case. The MIC in the assay with K. pneumoniae KPN 121206 and in the assay on E. coli ECO 190317 was greater than 32 µg/mL each time.
`CC(=O)Nc1nc2c(s1)C1CN(C2)C(=O)N1OS(=O)(=O)[O-].[Na+]` (stereo not drawn) [Example 6]: the minimum inhibitory concentration (MIC) was 16 µg/mL in the assay on E. cloacae ECL P99; greater than 32 µg/mL in the assay on P. aeruginosa PAE UFR92; greater than 32 µg/mL with P. aeruginosa PAE 107051; 4 µg/mL in the assay with E. coli ECO UFR39; greater than 32 µg/mL in assay [1]; greater than 32 µg/mL in the assay with P. aeruginosa PAE UFR49. Besides, the MIC in the assay on K. pneumoniae KPN 121206 was greater than 32 µg/mL; in the assay with E. coli ECO 190317 it was 2 µg/mL.
On to `O=C1N2Cc3ccsc3C(C2)N1OS(=O)(=O)[O-].[Na+]` (stereo not drawn) [Example 7], for which the MIC in the assay with E. cloacae ECL P99 is 8 µg/mL; in the assay with P. aeruginosa PAE UFR92 it was greater than 32 µg/mL; in the assay with P. aeruginosa PAE 107051, greater than 32 µg/mL; in the assay on E. coli ECO UFR39 it was 4 µg/mL; in assay [1], greater than 32 µg/mL; in the assay on P. aeruginosa PAE UFR49, greater than 32 µg/mL. In addition, the MIC in the assay on K. pneumoniae KPN 121206 was greater than 32 µg/mL; in the assay on E. coli ECO 190317, 2 µg/mL.
Take `CCOC(=O)[C@@H]1c2c(-c3ccc(F)cc3)csc2[C@@H]2CN1C(=O)N2OS(=O)(=O)[O-].[Na+]` [Example 8]: the MIC (in the assay with E. cloacae ECL P99; in the assay on P. aeruginosa PAE UFR92; in the assay on P. aeruginosa PAE 107051; with E. coli ECO UFR39; in assay [1]; with P. aeruginosa PAE UFR49) was greater than 32 µg/mL throughout. Moreover, the minimum inhibitory concentration (MIC) in the assay on K. pneumoniae KPN 121206 and in the assay with E. coli ECO 190317 was greater than 32 µg/mL throughout.
